Source: patent US6630128B1, “Porphyrin derivatives their use in photodynamic therapy and medical devices containing them” (Destiny Pharma Limited, priority 1999, dated 2003)
Read-outs that look alike come from different tables or passages of the source.

Tests used:
[1] = reference values from Handbook of Photochemistry Ed 2; not measured in this work; cited from earlier work
[2] = literature values (Rossbroich et al. 1985; Wilkinson et al. 1993); cited from earlier work
[3] = Singlet oxygen quantum yields (singlet oxygen phosphorescence at 1270 nm); type: physicochemical; conditions: for quantum yield of singlet oxygen production, ΦΔ (cross-calibration of reference materials): cross-calibrated against TPP ΦΔ=0.58, present work; for ΦΔ (singlet oxygen quantum yield): aerated toluene, excitation 355 nm, 20-23° C., relative to TPP ΦΔ=0.58
Protocol: The singlet oxygen quantum yields were determined by the direct measurement of singlet oxygen phosphorescence at 1270 nm. Samples were excited using the third harmonic of a Q-switched Nd:YAG (neodymium: yttrium-aluminium-garnet) Spectra Physics GCR-150-10 laser, operating at an excitation wavelength of 355 nm. A small fraction of the laser output was passed through a solution state filter containing aqueous cobalt (II) sulphate (CoSO4) to remove residual 532 and 1064 nm radiation and then down a 8 mm diameter liquid light guide (Oriel). For the measurements the end of the light guide was held against a 1 cm×1 cm fluorescence cuvette (Hellma) holding the sample. During the course of the experiments the incident laser energy for each measurement was determined using a pyroelectric detector held behind the sample. This detector was calibrated at the start of the experiment using a second calibrated energy meter (Gentec ED100). The laser energy was adjusted by placing cells containing aqueous sodium nitrite between the CoSO4 filter and the light guide. Typical pulse energies used were in the range of 25-500 μJ per pulse. Shot to shot noise was estimated to be <10% and sets of 20 shots gave an average value within <3%.
Phosphorescence from the sample was collected and passed through an interference filter centred at 1270 nm available from (Infra Red Engineering Ltd) and then focused onto the active area of a liquid nitrogen cooled germanium photodiode (North Coast EO-817P). The output from this device was AC coupled to a digital oscilloscope (Tektronix TDS-320) which digitised and averaged the transients. Typically 20 laser shots were used for each sample. The averaged data was transferred to a PC where it was stored and analysed.
A stock solution of each of the title compounds of Examples 67 to 81 was prepared by dissolving a small sample of the respective title compound in approximately 5 ml of toluene (Fisher Scientific, Analytical grade). The exact concentrations of the stock solution was not determined.
A working solution of each of the title compounds of Examples 67 to 81 was prepared by diluting the respective stock solution with toluene to give an absorbance of 0.100±0.005 at 355 nm when placed in a ultraviolet/visible spectrometer (ATI-Unicam UV-2) compared to a reference cell containing the pure toluene solvent. The ultraviolet/visible spectrum of each sample was also recorded over the range 300-700 nm.
All of the data were recorded at ambient temperature, 20-23° C., and the solutions were aerated. The singlet oxygen emission decay was recorded for each sample using 5 laser energies and the data for each measurement were fitted to an exponential decay of the form I(t)=A.exp(−t/τ), where I(t) is the measured intensity of singlet oxygen phosphorescence at time t, A is the intensity extrapolated back to t=0 (ie when the laser fires), and τ is the lifetime of singlet oxygen. A typical decay for the title compound of Example 78 in toluene excited at 355 nm using a pulse energy of 365 μJ, where A=19.6 and τ=27.8 μs, is shown in FIG. 2.
A plot of A versus the incident laser energy was drawn for each sample and the slope determined. The slope of such a graph is proportional to the singlet oxygen quantum yield. An example of a plot showing the linear relationship between the singlet oxygen emission intensity and the laser energy for the title compound of Example 78 and meso-tetraphenylporphyrin (TPP) is shown in FIG. 3.
The experiments were carried out using batches of 5 samples of the working solution of each of the title compounds of 67 to 81 plus one reference sample meso-tetraphenylporphyrin (TPP). Each run was repeated at least once. The data sets obtained for each sample were within ±5% of the mean value.
The dominant sources of error in the experiment include the shot-to-shot fluctuations in the laser and the difference in absorbances of the samples at the excitation wavelength. The values have an error of ±10%. […]

[4] = Fluorescence quantum yields (corrected emission spectra, relative to TPP); type: physicochemical; conditions: excitation wavelength 355 nm, emission 550-800 nm
Protocol: Mass spectra were recorded on a Finnigan MAT TSQ 700 triple quadrupole mass spectrometer equipped with an […]. The matrix-assisted laser desorption/ionization mass spectra of the porphyrins were obtained using a dithranol matrix. FAB-MS spectra were obtained using a 3-nitrobenzyl alcohol (NOBA) matrix. ^1H-NMR spectra were measured at 60 MHz on a Jeol JNM-PMX60 spectrometer, at 270 MHz on a Jeol EX 270 spectrometer and at 300 MHx on a Varian Gemini-300 spectrometer in CDCl3 using TMS as an internal reference. Ultraviolet/visible spectra of solutions of compounds in tetrahydrofuran (THF) or toluene were measured using a Hitachi U-3000 spectrophotometer or a ATI-Unicam UV-2 spectrophotometer. Reflectance-absorbance infra red (RAIR) spectra were recorded on a BIO-RAD FTS 165 spectrophotometer. Fluorescence emission spectra were recorded using a Spex Fluorolog 3 spectrophotometer at an excitation wavelength of 355 nm, emission at 550 to 800 nm, with a bandpass of 2 nm.
The emission spectra were recorded using a Spex Fluorolog 3, excitation wavelength=355 nm, emission 550-800 nm, with a bandpass of 2 nm. A spectrum was recorded for each of the title compounds of Examples 67 to 81.
The fluorescence quantum yield for each of the title compounds of Examples 67 to 81 was determined by measuring the integral of the corrected emission spectra for each compound and calculated relative to TPP=0.11 (Handbook of Photochemistry Ed 2, Murov, Carmichael and Hug, Dekker 1993). The fluorescence quantum yield for each of the title compounds of Examples 67 to 81 are listed in Table 1; values for Zn TPP and Mg TPP are included in Table 1 for reference but they were not measured in this work.

C1=Cc2nc1c(-c1ccccc1)c1ccc([nH]1)c(-c1ccccc1)c1nc(c(-c3ccccc3)c3ccc([nH]3)c2-c2ccccc2)C=C1 [TPP, meso-tetraphenylporphyrin]
Quantum yield of fluorescence, relative to TPP = 0.11 [1]: 0.11
quantum yield of singlet oxygen production, ΦΔ, literature value [2]: 0.58

C1=Cc2nc1c(-c1ccccc1)c1ccc([n-]1)c(-c1ccccc1)c1nc(c(-c3ccccc3)c3ccc([n-]3)c2-c2ccccc2)C=C1.[Zn+2] [Zn TPP, zinc tetraphenylporphyrin]
quantum yield of singlet oxygen production, ΦΔ (cross-calibration of reference materials) [3]: 0.77±0.07
Quantum yield of fluorescence, relative to TPP = 0.11 [1]: 0.04
quantum yield of singlet oxygen production, ΦΔ, literature value [2]: 0.73

C1=Cc2nc1c(-c1ccccc1)c1ccc([n-]1)c(-c1ccccc1)c1nc(c(-c3ccccc3)c3ccc([n-]3)c2-c2ccccc2)C=C1.[Mg+2] [Mg TPP, magnesium tetraphenylporphyrin]
Quantum yield of fluorescence, relative to TPP = 0.11 [1]: 0.15

5-[4-(12-but-3-Enyloxy-dodecyloxy)-phenyl]-10,15,20-tris-(3,4,5-trihexyloxy-phenyl)-porphyrinato Zinc [Example 72]
Quantum yield of fluorescence, relative to TPP = 0.11 [4]: 0.04
ΦΔ (singlet oxygen quantum yield) [3]: 0.71 ± 0.07

C=CCCOCCCCCCCCCCCCOc1ccc(-c2c3nc(c(-c4cc(OCCCCCC)cc(OCCCCCC)c4)c4ccc([n-]4)c(-c4cc(OCCCCCC)cc(OCCCCCC)c4)c4nc(c(-c5cc(OCCCCCC)cc(OCCCCCC)c5)c5ccc2[n-]5)C=C4)C=C3)cc1.[Zn+2] [Example 78, 5-[4-(12-but-3-Enyloxy-dodecyloxy)-phenyl]-10,15,20-tris-(3,5-dihexyloxy-phenyl)-porphyrinato Zinc]
Quantum yield of fluorescence, relative to TPP = 0.11 [4]: 0.04
ΦΔ (singlet oxygen quantum yield) [3]: 0.78 ± 0.08
τ, lifetime of singlet oxygen ([3]; toluene, excited at 355 nm, pulse energy 365 μJ (FIG. 2)): 27.8 μs

[Zn+2].c1ccc2c(c1)-c1nc-2nc2[n-]c(nc3nc([n-]c4nc(n1)-c1ccccc1-4)-c1ccccc1-3)c1ccccc21 [zinc phthalocyanine, reference compound]
quantum yield of singlet oxygen production, ΦΔ (cross-calibration of reference materials) [3]: 0.46±0.05
quantum yield of singlet oxygen production, ΦΔ, literature value [2]: 0.50
